Data reported in PMC11729550, “Discovery of indole analogue Tc3 as a potent pyroptosis inducer and identification of its combination strategy against hepatic carcinoma” (Theranostics, 2025).

Assays:
in vitro = settings: microsomes
Experimental: The reaction media contained liver microsomes (0.5 mg/mL), 1.0 mM β-nicotinamide adenine dinucleotide phosphate (β-NADPH), 3 mM MgCl2 phosphate buffer. Microsomal suspensions were pre-incubated with Tc3 for 3 min at 37℃. The reaction was initiated with the addition of β-NADPH and samples were collected at 0, 5, 15, 30 and 60 min. The negative control was excluded of β-NADPH. Midazolam was incubated similarly as a positive control substrate. At each time point, an aliquot was mixed acetonitrile. Samples were centrifuged and then supernatant was mixed with ultrapure water for LC-MS/MS analysis.

CD8^+ T cells = assay: Fluorescence staining and flow cytometry of tumor-infiltrating cells; format: in vivo, C57 BL/6N mice; settings: Hepa1-6 CDXs, 10 mg/kg
Experimental: The lymphocytes were isolated from the tumors and blocked by purified CD16/32 antibody. Next, the cells were stained with fluorescent-conjugated antibodies (FITC-CD11b, APC-F4/80, PE-CD86, Alexa Flour® 700-CD206, APC-Ly6G, FITC-CD45, APC-CD8a, Pacific Blue^TM-IFN-γ). The fluorescence intensity was measured by a FACS Calibur, and data were analyzed with FlowJo software.
The mice tumor tissues were embedded into the OCT reagent and sliced into 10 μm sections via the freezing microtome. The sections were fixed by paraformaldehyde, blocked by 3% bovine serum albumin (BSA, Beyotime, ST2254), and incubated with the primary antibodies overnight. In the second day, the sections were incubated with the fluorescent‐conjugated antibodies and 4′,6‐diamidino‐2‐phenylindole (DAPI, Solarbio, C0065) for nuclei. The tissue fluorescent images were captured by a confocal microscope (Leica, TCS SP8) and analyzed by imageJ software.

HepG2 CDXs = HepG2 CDXs treatment; format: in vivo, Balb/c nude mice; settings: 20 mg/kg and 40 mg/kg i.p. five times
Source text: Balb/c nude mice (female, 6-week-old) were subcutaneously injected with 2 × 10^6 HepG2 cells on the left and right flanks to construct cell-derived xenografts (CDXs). The patient-derived xenografts (PDXs) samples were gifts from Dr Changliang Shan of Nankai University. C57 BL/6N mice (female, 5-week-old) were subcutaneously injected with 2 × 10^6 Hepa1-6 cells mixed with matrigel (ABW, 0827265) on the left and right flanks. The mice were inoculated with hepatic carcinoma CDXs or PDXs for at least four days, and treated (i.p.) by vehicle and Tc3. […] Tumor volume = 4π/3 × (Length/2) × (Width/2)^2. All animal experiments were carried out in accordance with the recommendations of Requirements of the Ethical Review System of Biomedical Research Involving Human by National Health and Family Planning Commission of China and Nankai University Ethics Committee with written informed consent complying with the Declaration of Helsinki (IAEC ID: 2023-STDWLL-000249).

SK-Hep1 cells = assay: Anti-tumor activity assay (IC50 value), cells counted after three days; settings: Homo sapiens, SK-HEP1, 72 h, read-out: IC50 SK-Hep1
Experimental: For half maximal inhibitory concentrations (IC50) analysis, the hepatic carcinoma cells (HepG2, SK-Hep1 and PLC-PRF5) were seeded in 24-well plates respectively, then treated with drugs at concentration gradient for three days. The cells were counted with hemocytometer. […] A is the cell quantity of the control group and B is the cell quantity of the drug treated group. The cell inhibition rate was transformed using its logarithm. And the drug IC50 value were calculated by Graphpad Prsim 9 software with curve fitting of the drug concentration and log (cell inhibition rate).

AML-12 cells [1] = assay: Dose-response growth inhibition of liver parenchymal cells; format: cell-based; settings: AML12; mouse liver parenchymal cells
Source text: The cells were counted with hemocytometer.
(E) Dose-response curves for Tc3 inhibiting the growth of AML-12 cells.

AML-12 cells [2] = assay: Flow cytometry of propidium iodide and annexin V-FITC staining; format: cell-based, mouse
Source text: (§1) Figure 2 Cytotoxic effect of Tc3 on human hepatic carcinoma cells in vitro. […] (B-C) Cell viability rates of HepG2 (B) and SK-Hep1 (C) cells treated with Tb7, Tc1, Tc3, Tc4 and other clinical chemotherapy drugs. (D-F) Flow cytometry of propidium iodide and annexin V-fluorescein isothiocyanate (FITC)-stained HepG2 cells (D). Statistical analysis of the early apoptotic cells (E) and late apoptotic cells (F). (G-I) Flow cytometry of propidium iodide and annexin V-fluorescein isothiocyanate (FITC)-stained AML-12 cells (G). Statistical analysis of the early apoptotic cells (H) and late apoptotic cells (I). Data are presented as mean ± SD of three independent biological experiments. *p < 0.05, **p < 0.01, ***p < 0.001 and ****p < 0.0001, ns, no significant.

ROS = assay: Reactive Oxygen Species detection (DCFH-DA); format: cell-based, human; settings: HepG2 cells, 24 h
Experimental: The hepatic carcinoma cells were seeded in 6-well plates and treated with Tc3 for 24 h. The cells were then stained by DCFH-DA (10 μM) for 20 min, washed with PBS buffer for two times, and the fluorescence intensity was captured by a confocal microscope (Leica, TCS SP8).

HepG2 cells = assay: Flow cytometry of propidium iodide and annexin V-FITC staining; format: cell-based, human; settings: HepG2, 4 μM
Source text: as §1

[3] = Pharmacokinetic study of vein administration; format: in vivo; settings: Balb/c mice, intravenous 10 mg/kg
Experimental: Chromatographic conditions employed an ultimate AQ-C18 column (2.1 mm × 50 mm, 5.0 μm) and its temperature was set to 40℃. The mobile phase consisted of methanol and 0.1% formic acid, with a gradient elution program: 0-0.01 min, methanol 15%, 0.01-2 min, methanol 95%, 2-3 min, methanol 15%. The flow rate was set to 0.6 mL/min, the elution time was 3 min and ESI-MS in negative mode MRM was used for quantitative analysis. Masslynx 4.1 software was used for data acquisition and instrument control.
Stock solutions of Tc3 (1.0 mg/mL) and JBHDN (0.1 mg/mL) were prepared in methanol. A series of working solutions (5, 20, 100, 200, 800, 1000 and 2000 ng/mL) were added into blank mouse blood to prepare the standard curves. The JBHDN stock solution was diluted with 5% trichloroacetic acid-methanol to 100 ng/mL. In the same manner as the standard curve, quality control (QC) samples at 10 ng/mL, 450 ng/mL, and 1500 ng/mL were prepared. Next, Balb/c mice were administered intravenously (10 mg/kg). After 5 min, 15 min, 30 min, 1 h, 2 h, 4 h, 8 h, and 24 h, blood samples (20 μL) were collected from the tail vein of mice and mixed with internal standard JBHDN (100 ng/mL). The mixtures were then vortexed for 10 min at 4℃ and centrifuged at 5500 g for 10 min. The supernatant was mixed with 200 μL ultrapure water, and then injected into liquid chromatography-tandem mass spectrometry (LC-MS/MS) system for analysis.

## CC(C)[C@H](N)C(=O)NCCCn1cc(/C=C2\S/C(=N\c3ccc(N4CCOCC4)cc3)N(Cc3ccc(F)cc3)C2=O)c2ccccc21 [Tc3]
In vitro; human
  half-life at 1 μM: 0.825 h
  microsomal CLint at 1 μM: 28 µL/min/mg
In vitro; mouse
  half-life at 1 μM: 1.93 h
  microsomal CLint at 1 μM: 12 µL/min/mg
CD8^+ T cells
  infiltration of activated CD8^+ T cells in tumors: significantly promoted
HepG2 CDXs
  growth rate and weight of HepG2 CDX tumors: significantly smaller
SK-Hep1 cells
  IC50: 1.64 µM
AML-12 cells [1]
  IC50: 6.14 µM
AML-12 cells [2]
  cell death by annexin V / propidium iodide flow cytometry: not observed
ROS
  intracellular ROS (DCFH-DA probes): observably up-regulated
HepG2 cells
  cell death by annexin V / propidium iodide flow cytometry: severe cell death
[3]; 5 min-24 h
  plasma drug concentration: 12.4 to 1417.0 ng/mL
[3]; mouse, whole blood
  AUC(0-t): 1520 ng·h/mL
[3]; mouse, whole blood, read-out: half-life elimination t1/2 (converted)
  half-life: 8.08 h
